# System: patients with advanced solid tumors
# Assay: Safety: treatment-emergent and senaparib-related adverse events graded per NCI CTCAE v4.03
# Format: in vivo
# Method: This phase I, open-label, multicenter, dose-escalation, and dose-expansion study was conducted at three national clinical institutions in China. […] At baseline, all patients enrolled in the dose-escalation phase had to have at least one evaluable lesion, and those in the dose-expansion period had to have at least one measurable lesion, according to Response Evaluation Criteria in Solid Tumors version 1.1 (RECIST v1.1).[16] Entry to the dose-expansion cohort required the presence of a BRCA mutation, with the exception of patients with ovarian carcinoma, fallopian tube carcinoma, and primary peritoneal carcinoma. Full study eligibility criteria are provided in Supplementary Table S1.
# Dose escalation was conducted using a modified Fibonacci 3 + 3 method (Supplementary Fig. S1).[17] Patients were administered oral senaparib from a planned starting dose of 2 mg once daily (QD), with preliminary dose escalation to 120 mg via nine dose groups, in order of their entry into the study. At a given dose level, each patient received a single dose of senaparib followed by a 7-day washout period. They then entered a continuous dosing period to confirm the safety and PK profile, in which they received senaparib QD from day 1 to day 21 of each 3-week cycle. Progression to the next higher dose required approval from the Data Safety Monitoring Committee (DSMC) upon review of the safety and PK data of the previous dose. A 50-mg twice-daily (BID) dosing group was added (planned enrollment, n = 6 patients) based on a DSMC review of the safety, PK, and efficacy analysis of the completed QD dose groups in the phase I clinical trial of senaparib dose escalation in Australia (NCT03507543), which commenced prior to the start of this trial.
# The dose-expansion period included 3 populations: dose groups in which at least one patient achieved complete response (CR) or partial response (PR) per RECIST v1.1[16] and 1 dose group higher (evaluated for safety), as well as the dose group at the maximum tolerated dose (MTD)/recommended phase II dose (RP2D). Each of these groups included those patients in the respective dose-escalation group plus a planned additional 10 patients (approximately 20 patients in the MTD/RP2D group) with BRCA^mut+ solid tumors (ovarian, breast, or prostate cancer were preferred, and ovarian cancer could be BRCA wild type). Patients received senaparib monotherapy orally QD or BID (50-mg dose only) over each 3-week cycle until disease progression or unacceptable toxicity.
# DLTs were predefined toxicities (Supplementary Table S2) recorded over the 7 days following the single-dose administration of senaparib and during the first treatment cycle (day 1-day 21) for each dose group in the dose-escalation period only. The MTD was defined as the maximum dose at which ≤1/6 patients experienced a DLT. Senaparib PK parameters were derived from blood samples collected from patients after the single administration, and at regular intervals during the first cycle of the dose-escalation and dose-expansion periods. Plasma concentrations of senaparib were determined using high-performance liquid chromatography-tandem mass spectrometry. Tumor response was assessed every 6 weeks per RECIST v1.1,[16] recording objective response rate (ORR), disease control rate (DCR), duration of response (DOR), and progression-free survival (PFS) by dose level for all patients and for those harboring BRCA^mut+ tumors.
compound,measurement,setting,value
O=C(c1cc(Cn2c(=O)[nH]c(=O)c3c(F)cccc32)ccc1F)N1CCN(c2ncccn2)CC1 [Senaparib],"Blood creatinine increased TRAE, Gr≥3",10 mg QD n = 3,0 n (%)
same,"Hypokalemia TRAE, All",10 mg QD n = 3,0 n (%)
same,"Hypokalemia TRAE, Gr≥3",10 mg QD n = 3,0 n (%)
same,"Nausea TRAE, All",10 mg QD n = 3,0 n (%)
same,"Nausea TRAE, Gr≥3",10 mg QD n = 3,0 n (%)
same,"Neutrophil count decreased TRAE, All",10 mg QD n = 3,0 n (%)
same,"Neutrophil count decreased TRAE, Gr≥3",10 mg QD n = 3,0 n (%)
same,"Platelet count decreased TRAE, All",10 mg QD n = 3,0 n (%)
same,"Platelet count decreased TRAE, Gr≥3",10 mg QD n = 3,0 n (%)
same,"SAEs, events",10 mg QD n = 3,0 n ev
same,"SAEs, patients",10 mg QD n = 3,0 n (%)
same,"TEAE Grade ≥3, events",10 mg QD n = 3,0 n ev
same,"TEAE Grade ≥3, patients",10 mg QD n = 3,0 n (%)
same,"TEAEs leading to death, events",10 mg QD n = 3,0 n ev
same,"TEAEs leading to death, patients",10 mg QD n = 3,0 n (%)
same,"TEAEs leading to dose discontinuation, events",10 mg QD n = 3,0 n ev
same,"TEAEs leading to dose discontinuation, patients",10 mg QD n = 3,0 n (%)
same,"TEAEs leading to dose interruption, events",10 mg QD n = 3,0 n ev
same,"TEAEs leading to dose interruption, patients",10 mg QD n = 3,0 n (%)
same,"TEAEs leading to dose reduction, events",10 mg QD n = 3,0 n ev
same,"TEAEs leading to dose reduction, patients",10 mg QD n = 3,0 n (%)
same,"TRAEs Grade ≥3, events",10 mg QD n = 3,0 n ev
same,"TRAEs Grade ≥3, patients",10 mg QD n = 3,0 n (%)
same,"TRAEs, patients",10 mg QD n = 3,3 (100) n (%)
same,"Vomiting TRAE, All",10 mg QD n = 3,0 n (%)
same,"Vomiting TRAE, Gr≥3",10 mg QD n = 3,0 n (%)
same,"WBC decreased TRAE, All",10 mg QD n = 3,1 (33.3) n (%)
same,"WBC decreased TRAE, Gr≥3",10 mg QD n = 3,0 n (%)
same,"ALT increased TRAE, All",20 mg QD n = 5,0 n (%)
same,"ALT increased TRAE, Gr≥3",20 mg QD n = 5,0 n (%)
same,"AST increased TRAE, All",20 mg QD n = 5,0 n (%)
same,"AST increased TRAE, Gr≥3",20 mg QD n = 5,0 n (%)
same,"Anemia TRAE, All",20 mg QD n = 5,1 (20.0) n (%)
same,"Anemia TRAE, Gr≥3",20 mg QD n = 5,1 (20.0) n (%)
same,"Any TEAE, All",20 mg QD n = 5,5 (100) n (%)
same,"Any TEAE, Gr≥3",20 mg QD n = 5,2 (40.0) n (%)
same,"Any TEAE, events",20 mg QD n = 5,30 n ev
same,"Any TEAE, patients",20 mg QD n = 5,5 (100) n (%)
same,"Any TRAE, All",20 mg QD n = 5,3 (60.0) n (%)
same,"Any TRAE, Gr≥3",20 mg QD n = 5,1 (20.0) n (%)
same,"Appetite decreased TRAE, All",20 mg QD n = 5,0 n (%)
same,"Appetite decreased TRAE, Gr≥3",20 mg QD n = 5,0 n (%)
same,"Asthenia TRAE, All",20 mg QD n = 5,1 (20.0) n (%)
same,"Asthenia TRAE, Gr≥3",20 mg QD n = 5,0 n (%)
same,"Blood bilirubin increased TRAE, All",20 mg QD n = 5,0 n (%)
same,"Blood bilirubin increased TRAE, Gr≥3",20 mg QD n = 5,0 n (%)
same,"Blood creatinine increased TRAE, All",20 mg QD n = 5,1 (20.0) n (%)
same,"Blood creatinine increased TRAE, Gr≥3",20 mg QD n = 5,0 n (%)
same,"Hypokalemia TRAE, All",20 mg QD n = 5,1 (20.0) n (%)
same,"Hypokalemia TRAE, Gr≥3",20 mg QD n = 5,0 n (%)
same,"Nausea TRAE, All",20 mg QD n = 5,1 (20.0) n (%)
same,"Nausea TRAE, Gr≥3",20 mg QD n = 5,0 n (%)
same,"Neutrophil count decreased TRAE, All",20 mg QD n = 5,0 n (%)
same,"Neutrophil count decreased TRAE, Gr≥3",20 mg QD n = 5,0 n (%)
same,"Platelet count decreased TRAE, All",20 mg QD n = 5,1 (20.0) n (%)
same,"Platelet count decreased TRAE, Gr≥3",20 mg QD n = 5,0 n (%)
same,"SAEs, events",20 mg QD n = 5,1 n ev
same,"SAEs, patients",20 mg QD n = 5,1 (20.0) n (%)
same,"TEAE Grade ≥3, events",20 mg QD n = 5,3 n ev
same,"TEAE Grade ≥3, patients",20 mg QD n = 5,2 (40.0) n (%)
same,"TEAEs leading to death, events",20 mg QD n = 5,1 n ev
same,"TEAEs leading to death, patients",20 mg QD n = 5,1 (20.0) n (%)
same,"TEAEs leading to dose discontinuation, events",20 mg QD n = 5,2 n ev
same,"TEAEs leading to dose discontinuation, patients",20 mg QD n = 5,2 (40.0) n (%)
same,"TEAEs leading to dose interruption, events",20 mg QD n = 5,1 n ev
same,"TEAEs leading to dose interruption, patients",20 mg QD n = 5,1 (20.0) n (%)
same,"TEAEs leading to dose reduction, events",20 mg QD n = 5,0 n ev
same,"TEAEs leading to dose reduction, patients",20 mg QD n = 5,0 n (%)
same,"TRAEs Grade ≥3, events",20 mg QD n = 5,1 n ev
same,"TRAEs Grade ≥3, patients",20 mg QD n = 5,1 (20.0) n (%)
same,"TRAEs, events",20 mg QD n = 5,15 n ev
same,"TRAEs, patients",20 mg QD n = 5,3 (60.0) n (%)
same,"Vomiting TRAE, All",20 mg QD n = 5,0 n (%)
same,"Vomiting TRAE, Gr≥3",20 mg QD n = 5,0 n (%)
same,"WBC decreased TRAE, All",20 mg QD n = 5,1 (20.0) n (%)
same,"WBC decreased TRAE, Gr≥3",20 mg QD n = 5,0 n (%)
same,"ALT increased TRAE, All",40 mg QD n = 3,0 n (%)
same,"ALT increased TRAE, Gr≥3",40 mg QD n = 3,0 n (%)
same,"AST increased TRAE, All",40 mg QD n = 3,0 n (%)
same,"AST increased TRAE, Gr≥3",40 mg QD n = 3,0 n (%)
same,"Anemia TRAE, All",40 mg QD n = 3,1 (33.3) n (%)
same,"Anemia TRAE, Gr≥3",40 mg QD n = 3,0 n (%)
same,"Any TEAE, All",40 mg QD n = 3,3 (100) n (%)
same,"Any TEAE, Gr≥3",40 mg QD n = 3,0 n (%)
same,"Any TEAE, events",40 mg QD n = 3,7 n ev
same,"Any TEAE, patients",40 mg QD n = 3,3 (100) n (%)
same,"Any TRAE, All",40 mg QD n = 3,3 (100) n (%)
same,"Any TRAE, Gr≥3",40 mg QD n = 3,0 n (%)
same,"Appetite decreased TRAE, All",40 mg QD n = 3,0 n (%)
same,"Appetite decreased TRAE, Gr≥3",40 mg QD n = 3,0 n (%)
same,"Asthenia TRAE, All",40 mg QD n = 3,1 (33.3) n (%)
same,"Asthenia TRAE, Gr≥3",40 mg QD n = 3,0 n (%)
same,"Blood bilirubin increased TRAE, All",40 mg QD n = 3,0 n (%)
same,"Blood bilirubin increased TRAE, Gr≥3",40 mg QD n = 3,0 n (%)
same,"Blood creatinine increased TRAE, All",40 mg QD n = 3,1 (33.3) n (%)
same,"Blood creatinine increased TRAE, Gr≥3",40 mg QD n = 3,0 n (%)
same,"Hypokalemia TRAE, All",40 mg QD n = 3,0 n (%)
same,"Hypokalemia TRAE, Gr≥3",40 mg QD n = 3,0 n (%)
same,"Nausea TRAE, All",40 mg QD n = 3,0 n (%)
same,"Nausea TRAE, Gr≥3",40 mg QD n = 3,0 n (%)
same,"Neutrophil count decreased TRAE, All",40 mg QD n = 3,0 n (%)
same,"Neutrophil count decreased TRAE, Gr≥3",40 mg QD n = 3,0 n (%)
same,"Platelet count decreased TRAE, All",40 mg QD n = 3,0 n (%)
same,"Platelet count decreased TRAE, Gr≥3",40 mg QD n = 3,0 n (%)
same,"SAEs, events",40 mg QD n = 3,0 n ev
same,"SAEs, patients",40 mg QD n = 3,0 n (%)
same,"TEAE Grade ≥3, events",40 mg QD n = 3,0 n ev
same,"TEAE Grade ≥3, patients",40 mg QD n = 3,0 n (%)
same,"TEAEs leading to death, events",40 mg QD n = 3,0 n ev
same,"TEAEs leading to death, patients",40 mg QD n = 3,0 n (%)
same,"TEAEs leading to dose discontinuation, events",40 mg QD n = 3,0 n ev
same,"TEAEs leading to dose discontinuation, patients",40 mg QD n = 3,0 n (%)
same,"TEAEs leading to dose interruption, events",40 mg QD n = 3,0 n ev
same,"TEAEs leading to dose interruption, patients",40 mg QD n = 3,0 n (%)
same,"TEAEs leading to dose reduction, events",40 mg QD n = 3,0 n ev
same,"TEAEs leading to dose reduction, patients",40 mg QD n = 3,0 n (%)

# Reference: PMC10712727, “Safety, Tolerability, and Pharmacokinetics of Senaparib, a Novel PARP1/2 Inhibitor, in Chinese Patients With Advanced Solid Tumors: A Phase I Trial” (The Oncologist, 2023)
